Results published in US5120727A, “Rapamycin dimers” (American Home Products Corporation, priority 1991, dated 1992).

How the values were obtained:
[1] = system: adjuvant arthritis model; conditions: model for rheumatoid arthritis; cited from earlier work
[2] = system: experimental allergic encephalomyelitis model; conditions: model for multiple sclerosis; cited from earlier work
[3] = cited from earlier work
[4] = system: IGE-like antibodies; conditions: in vivo; cited from earlier work
[5] = system: Candida albicans; conditions: both in vitro and in vivo; cited from earlier work
[6] = system: transplant rejection; conditions: in vivo; cited from earlier work
[7] = system: cells from the thymus of normal BALB/c mice; assay: comitogen-induced thymocyte proliferation procedure (LAF); assay type: cell-based; conditions: PHA and IL-1, 72 hours, tritiated thymidine last six hours
Protocol: Immunosuppresive activity of the compounds of the present invention was evaluated in an in vitro standard pharmacological test procedure to measure lymphocyte proliferation (LAF).
Briefly, cells from the thymus of normal BALB/c mice were cultured for 72 hours with PHA and IL-1 and pulsed with tritiated thymidine during the last six hours. […] Cells are harvested and incorporated; radioactivity is determined. Inhibition of lymphoproliferation is assessed in percent change in counts per minute from non-drug treated controls. The results are expressed by the following ratio: [formula]

SMILES | R/*A at 10 nM (relative potency of analogs/rapamycin) [7] | R/*A at 100 nM (relative potency of analogs/rapamycin) [7] | further results
CO[C@H]1C[C@@H]2CC[C@@H](C)[C@@](O)(O2)C(=O)C(=O)N2CCCC[C@H]2C(=O)O[C@H]([C@H](C)C[C@@H]2CC[C@@H](O)[C@H](OC)C2)CC(=O)[C@H](C)/C=C(\C)[C@@H](O)[C@@H](OC)C(=O)[C@H](C)C[C@H](C)/C=C/C=C/C=C/1C [Rapamycin] | – | – | effect in the adjuvant arthritis model [1]: effective; effect in the experimental allergic encephalomyelitis model [2]: effective; antitumor activity ([3]; alone): antitumor activity; antitumor activity in combination ([3]; in combination with picibanil): antitumor activity; inhibition of the formation of IGE-like antibodies [4]: effectively inhibited; antifungal activity [5]: antifungal activity; inhibiting transplant rejection [6]: effective in inhibiting transplant rejection
CO[C@H]1C[C@@H]2CC[C@@H](C)[C@@](O)(O2)C(=O)C(=O)N2CCCC[C@H]2C(=O)O[C@H]([C@H](C)C[C@@H]2CC[C@@H](OC(=O)CCCCCC(=O)O[C@@H]3CC[C@@H](C[C@@H](C)[C@@H]4CC(=O)[C@H](C)/C=C(\C)[C@@H](O)[C@@H](OC)C(=O)[C@H](C)C[C@H](C)/C=C/C=C/C=C(\C)[C@@H](OC)C[C@@H]5CC[C@@H](C)[C@@](O)(O5)C(=O)C(=O)N5CCCC[C@H]5C(=O)O4)C[C@H]3OC)[C@H](OC)C2)CC(=O)[C@H](C)/C=C(\C)[C@@H](O)[C@@H](OC)C(=O)[C@H](C)C[C@H](C)/C=C/C=C/C=C/1C [Example 2, Rapamycin-42,42'-diester with heptanedioic acid] | 0.28 | 0.96 | –
CO[C@H]1C[C@@H]2CC[C@@H](C)[C@@](O)(O2)C(=O)C(=O)N2CCCC[C@H]2C(=O)O[C@H]([C@H](C)C[C@@H]2CC[C@@H](OC(=O)CCCCCCCC(=O)O[C@@H]3CC[C@@H](C[C@@H](C)[C@@H]4CC(=O)[C@H](C)/C=C(\C)[C@@H](O)[C@@H](OC)C(=O)[C@H](C)C[C@H](C)/C=C/C=C/C=C(\C)[C@@H](OC)C[C@@H]5CC[C@@H](C)[C@@](O)(O5)C(=O)C(=O)N5CCCC[C@H]5C(=O)O4)C[C@H]3OC)[C@H](OC)C2)CC(=O)[C@H](C)/C=C(\C)[C@@H](O)[C@@H](OC)C(=O)[C@H](C)C[C@H](C)/C=C/C=C/C=C/1C [Example 4, Rapamycin-42,42'-diacid with nonanedioic acid] | 1.10 | 1.0 | –
CO[C@H]1C[C@@H]2CC[C@@H](C)[C@@](O)(O2)C(=O)C(=O)N2CCCC[C@H]2C(=O)O[C@H]([C@H](C)C[C@@H]2CC[C@@H](OC(=O)CCCCCCC(=O)O[C@@H]3CC[C@@H](C[C@@H](C)[C@@H]4CC(=O)[C@H](C)/C=C(\C)[C@@H](O)[C@@H](OC)C(=O)[C@H](C)C[C@H](C)/C=C/C=C/C=C(\C)[C@@H](OC)C[C@@H]5CC[C@@H](C)[C@@](O)(O5)C(=O)C(=O)N5CCCC[C@H]5C(=O)O4)C[C@H]3OC)[C@H](OC)C2)CC(=O)[C@H](C)/C=C(\C)[C@@H](O)[C@@H](OC)C(=O)[C@H](C)C[C@H](C)/C=C/C=C/C=C/1C [Example 3, Rapamycin-42,42'-diester with octanedioic acid] | 0.59 | 1.0 | –
CO[C@H]1C[C@@H]2CC[C@@H](C)[C@@](O)(O2)C(=O)C(=O)N2CCCC[C@H]2C(=O)O[C@H]([C@H](C)C[C@@H]2CC[C@@H](OC(=O)CCCCC(=O)O[C@@H]3CC[C@@H](C[C@@H](C)[C@@H]4CC(=O)[C@H](C)/C=C(\C)[C@@H](O)[C@@H](OC)C(=O)[C@H](C)C[C@H](C)/C=C/C=C/C=C(\C)[C@@H](OC)C[C@@H]5CC[C@@H](C)[C@@](O)(O5)C(=O)C(=O)N5CCCC[C@H]5C(=O)O4)C[C@H]3OC)[C@H](OC)C2)CC(=O)[C@H](C)/C=C(\C)[C@@H](O)[C@@H](OC)C(=O)[C@H](C)C[C@H](C)/C=C/C=C/C=C/1C [Example 1, Rapamycin-42,42'-diester with hexanedioic acid] | 0.95 | 1.0 | –
